Data reported in patent US20080234254A1, “Inhibitors of Histone Deacetylase” (UNIVERSITY OF LEEDS, priority 2004, published 2008).
Read-outs that look alike come from different tables or passages of the source.

How the values were obtained:
Assay type in all cases: cell-based
RPMI-8226 = assay: Screening against cancer cell lines: RPMI-8226 (Leukaemia)
From the text: (§1) Screening of Benzamide Derivatives Against Cancer Cell Lines Tables 1 and 2 tabulate by way of example the results obtained for compounds (4) and (6).

SR = assay: Screening against cancer cell lines: SR (Leukaemia); conditions: Leukaemia
From the text: as §1

NCI-H23 = assay: Screening against cancer cell lines: NCI-H23 (Non-Small Cell Lung)
From the text: as §1
(§2) 8 non-small cell lung cancer cell lines were screened against both compound (4) and MS275.

NCI-H522 = assay: Screening against cancer cell lines: NCI-H522 (Non-Small Cell Lung)
From the text: as §1, §2

HCC-2998 = assay: Screening against cancer cell lines: HCC-2998 (Colon)
From the text: as §1
(§3) 6 colon cancer cell lines were screened against both compound (4) and MS275.

HCT-15 = assay: Screening against cancer cell lines: HCT-15 (Colon)
From the text: as §1, §3

LOX IMVI = assay: Screening against cancer cell lines: LOX IMVI (Melanoma)
From the text: as §1
(§4) 7 melanoma cancer cell lines were screened against both compound (4) and MS275.

SK-MEL-28 = assay: Screening against cancer cell lines: SK-MEL-28 (Melanoma)
From the text: as §1, §4

UACC-257 = assay: Screening against cancer cell lines: UACC-257 (Melanoma)
From the text: as §1, §4

UACC-62 = assay: Screening against cancer cell lines: UACC-62 (Melanoma)
From the text: as §1

IGROV1 = assay: Screening against cancer cell lines: IGROV1 (Ovarian)
From the text: as §1
(§5) 6 ovarian cancer cell lines were screened against both compound (4) and MS275.

OVCAR-8 = assay: Screening against cancer cell lines: OVCAR-8 (Ovarian)
From the text: as §1

ACHN = assay: Screening against cancer cell lines: ACHN (Renal)
From the text: as §1
(§6) 7 renal cancer cell lines were screened against both compound (4) and MS275.

SN12C = assay: Screening against cancer cell lines: SN12C (Renal)
From the text: as §1, §6

NCI/ADR-RES = assay: Screening against cancer cell lines: NCI/ADR-RES (Breast)
From the text: as §1
(§7) 7 breast cancer cell lines were screened against both compound (4) and MS275.

MDA-MB-231/ATCC = assay: Screening against cancer cell lines: MDA-MB-231/ATCC (Breast)
From the text: as §1, §7

MDA-MB-435 = assay: Screening against cancer cell lines: MDA-MB-435 (Breast)
From the text: as §1, §7

KM-12 = assay: Comparison test versus MS275: KM-12 (colon cancer); conditions: Homo sapiens, KM12, read-out: potency (quantity not named; values match GI50 of Table 1)
From the text: as §3

786-0 = assay: Comparison test versus MS275: 786-0 (renal cancer); conditions: Homo sapiens, read-out: potency (quantity not named; values match GI50 of Table 1)
From the text: as §6

SK-OV-3 = assay: Comparison test versus MS275: SK-OV-3 (ovarian cancer); conditions: Homo sapiens, read-out: potency (quantity not named; values match GI50 of Table 1)
From the text: as §5

OVCAR-4 = assay: Comparison test versus MS275: OVCAR-4 (ovarian cancer); conditions: Homo sapiens, read-out: potency (quantity not named; values match GI50 of Table 1)
From the text: as §5

colon cancer cell lines = assay: Comparison test versus MS275: 6 colon cancer cell lines; conditions: in 3 cell lines of 6 colon cancer cell lines screened
From the text: as §3

[1] = test system: non-small cell lung cancer cell lines; assay: Comparison test versus MS275: 8 non-small cell lung cancer cell lines; conditions: in 2 cell lines of 8 non-small cell lung cancer cell lines screened
From the text: as §2

renal cancer cell lines = assay: Comparison test versus MS275: 7 renal cancer cell lines; conditions: in 4 cell lines of 7 renal cancer cell lines screened
From the text: as §6

[2] = test system: melanoma cancer cell lines; assay: Comparison test versus MS275: 7 melanoma cancer cell lines; conditions: in 3 cell lines of 7 melanoma cancer cell lines screened
From the text: as §4

[3] = test system: ovarian cancer cell lines; assay: Comparison test versus MS275: 6 ovarian cancer cell lines; conditions: in 3 cell lines of 6 ovarian cancer cell lines screened
From the text: as §5

breast cancer cell lines = assay: Comparison test versus MS275: 7 breast cancer cell lines; conditions: in 3 cell lines of 7 breast cancer cell lines screened
From the text: as §7

cancer cell lines = assay: Screening of benzamide derivatives against cancer cell lines (summary); conditions: summary of Tables 1 and 2
From the text: as §1

[4] = Homo sapiens, Table 1, read-out: LC50 (the source's name)
[5] = Homo sapiens, Renal, Table 1, read-out: GI50
[6] = Homo sapiens, Renal, Table 1, read-out: LC50 (the source's name)
[7] = Homo sapiens, renal cancer, comparison versus MS275, read-out: potency (quantity not named; values match GI50 of Table 1)
[8] = Homo sapiens, Breast, Table 1, read-out: GI50
[9] = Homo sapiens, Breast, Table 1, read-out: LC50 (the source's name)
[10] = Homo sapiens, breast cancer, comparison versus MS275, read-out: potency (quantity not named; values match GI50 of Table 1)

C=C(CN1CCc2ccccc2C1)c1ccc(C(=O)Nc2ccccc2N)cc1 [Compound (4), N-(2-Amino-phenyl)-4-[1-(3,4-dihydroisoquinolin-2(1H)-ylmethyl)vinyl]benzamide]
GI50 (RPMI-8226; Homo sapiens, Table 1): 510 nM | CC50 (RPMI-8226; [4]): > 50000 nM | TGI (RPMI-8226; Table 1): — (‘—’ indicates a concentration exceeding 50 μM.) | GI50 (SR; Homo sapiens, Table 1, read-out: GI50): 484 nM | CC50 (SR; [4]): > 50000 nM | TGI (SR; Table 1): — (‘—’ indicates a concentration exceeding 50 μM.) | GI50 (NCI-H23; Homo sapiens, NCI-H23, Non-Small Cell Lung, Table 1, read-out: GI50): 178 nM | CC50 (NCI-H23; Homo sapiens, NCI-H23, Non-Small Cell Lung, Table 1, read-out: LC50 (the source's name)): 11400 nM | GI50 (NCI-H23; Homo sapiens, NCI-H23, non-small cell lung cancer, comparison versus MS275, read-out: potency (quantity not named; values match GI50 of Table 1)): 180 nM | TGI (NCI-H23; NCI-H23, Non-Small Cell Lung, Table 1): 1500 nM | GI50 (NCI-H522; Homo sapiens, NCI-H522, Non-Small Cell Lung, Table 1, read-out: GI50): 220 nM | CC50 (NCI-H522; Homo sapiens, NCI-H522, Non-Small Cell Lung, Table 1, read-out: LC50 (the source's name)): 20800 nM | GI50 (NCI-H522; Homo sapiens, NCI-H522, non-small cell lung cancer, comparison versus MS275, read-out: potency (quantity not named; values match GI50 of Table 1)): 220 nM | TGI (NCI-H522; NCI-H522, Non-Small Cell Lung, Table 1): 1400 nM | TGI (HCC-2998; HCC-2998, Colon, Table 1): 400 nM | GI50 (HCC-2998; Homo sapiens, HCC-2998, Colon, Table 1, read-out: GI50): 90 nM | CC50 (HCC-2998; Homo sapiens, HCC-2998, Colon, Table 1, read-out: LC50 (the source's name)): 2000 nM | GI50 (HCC-2998; Homo sapiens, HCC-2998, colon cancer, comparison versus MS275, read-out: potency (quantity not named; values match GI50 of Table 1)): 90 nM | TGI (HCT-15; HCT-15, Colon, Table 1): 7800 nM | GI50 (HCT-15; Homo sapiens, HCT-15, Colon, Table 1, read-out: GI50): 836 nM | CC50 (HCT-15; Homo sapiens, HCT-15, Colon, Table 1, read-out: LC50 (the source's name)): > 50000 nM | GI50 (HCT-15; Homo sapiens, HCT-15, colon cancer, comparison versus MS275, read-out: potency (quantity not named; values match GI50 of Table 1)): 840 nM | GI50 (LOX IMVI; Homo sapiens, Melanoma, Table 1, read-out: GI50): 99 nM | CC50 (LOX IMVI; Homo sapiens, Melanoma, Table 1, read-out: LC50 (the source's name)): 6400 nM | GI50 (LOX IMVI; Homo sapiens, melanoma, comparison versus MS275, read-out: potency (quantity not named; values match GI50 of Table 1)): 90 nM | TGI (LOX IMVI; Melanoma, Table 1): 600 nM | GI50 (SK-MEL-28; Homo sapiens, SK-MEL-28, Melanoma, Table 1, read-out: GI50): 389 nM | CC50 (SK-MEL-28; Homo sapiens, SK-MEL-28, Melanoma, Table 1, read-out: LC50 (the source's name)): > 50000 nM | GI50 (SK-MEL-28; Homo sapiens, SK-MEL-28, melanoma, comparison versus MS275, read-out: potency (quantity not named; values match GI50 of Table 1)): 390 nM | TGI (SK-MEL-28; SK-MEL-28, Melanoma, Table 1): 6500 nM | GI50 (UACC-257; Homo sapiens, UACC-257, Melanoma, Table 1, read-out: GI50): 499 nM | CC50 (UACC-257; Homo sapiens, UACC-257, Melanoma, Table 1, read-out: LC50 (the source's name)): > 50000 nM | GI50 (UACC-257; Homo sapiens, UACC-257, melanoma, comparison versus MS275, read-out: potency (quantity not named; values match GI50 of Table 1)): 500 nM | TGI (UACC-257; UACC-257, Melanoma, Table 1): 15500 nM | GI50 (UACC-62; Homo sapiens, Table 1): 666 nM | CC50 (UACC-62; [4]): 20700 nM | TGI (UACC-62; Table 1): 2900 nM | GI50 (IGROV1; Homo sapiens, IGROV-1, IGROV1, Ovarian, Table 1, read-out: GI50): 245 nM | CC50 (IGROV1; Homo sapiens, IGROV-1, IGROV1, Ovarian, Table 1, read-out: LC50 (the source's name)): > 50000 nM | GI50 (IGROV1; Homo sapiens, IGROV-1, IGROV1, ovarian cancer, comparison versus MS275, read-out: potency (quantity not named; values match GI50 of Table 1)): 250 nM | TGI (IGROV1; IGROV1, Ovarian, Table 1): 10500 nM | GI50 (OVCAR-8; Homo sapiens, Table 1): 768 nM | CC50 (OVCAR-8; [4]): > 50000 nM | TGI (OVCAR-8; Table 1): 12500 nM | GI50 (ACHN; [5]): 844 nM | CC50 (ACHN; [6]): 14400 nM | GI50 (ACHN; [7]): 840 nM | TGI (ACHN; Renal, Table 1): 2800 nM | GI50 (SN12C; [5]): 629 nM | CC50 (SN12C; [6]): 27000 nM | GI50 (SN12C; [7]): 630 nM | TGI (SN12C; Renal, Table 1): 2700 nM | TGI (NCI/ADR-RES; Breast, Table 1): 2000 nM | GI50 (NCI/ADR-RES; [8]): 613 nM | CC50 (NCI/ADR-RES; [9]): > 50000 nM | GI50 (NCI/ADR-RES; [10]): 610 nM | TGI (MDA-MB-231/ATCC; Breast, Table 1): 2700 nM | GI50 (MDA-MB-231/ATCC; [8]): 748 nM | CC50 (MDA-MB-231/ATCC; [9]): 19200 nM | GI50 (MDA-MB-231/ATCC; [10]): 750 nM | GI50 (MDA-MB-435; Homo sapiens, MDA-MB-435, Breast, Table 1, read-out: GI50): 98 nM | CC50 (MDA-MB-435; Homo sapiens, MDA-MB-435, Breast, Table 1, read-out: LC50 (the source's name)): ~4000 nM | GI50 (MDA-MB-435; Homo sapiens, MDA-MB-435, breast cancer, comparison versus MS275, read-out: potency (quantity not named; values match GI50 of Table 1)): 90 nM | TGI (MDA-MB-435; MDA-MB-435, Breast, Table 1): 600 nM | GI50 (KM-12): 1150 nM | GI50 (786-0): 1050 nM | GI50 (SK-OV-3): 1080 nM | GI50 (OVCAR-4): 1910 nM | potency over MS275 (colon cancer cell lines): > 2 fold | potency over MS275 [1]: > 2 fold | potency over MS275 (renal cancer cell lines): > 2 fold | potency over MS275 [2]: > 2 fold | potency over MS275 [3]: > 2 fold | potency over MS275 (breast cancer cell lines): > 2 fold | activity against cancer cell lines (in words) (cancer cell lines): potently inhibited
